What was measured:
Settings in all cases: compound 10.0 µM
PTK6 (human) = PTK6 (human) (UniProt Q13882)
TLK2 (human) = TLK2 (human) (UniProt Q86UE8)
PIP5K1A (human) = PIP5K1A (human) (UniProt Q99755)
EPHA5 (human) = EPHA5 (human) (UniProt P54756)
ERBB4 (human) = ERBB4 (human) (UniProt Q15303)
MAPK8 (human) = MAPK8 (human) (UniProt P45983)
PKMYT1 (human) = PKMYT1 (human) (UniProt Q99640)
CSNK1G2 (human) = CSNK1G2 (human) (UniProt P78368)
MAPK13 (human) = MAPK13 (human) (UniProt O15264)
MAP3K12 (human) = MAP3K12 (human) (UniProt Q12852)
BMX (human) = BMX (human) (UniProt P51813)
PAK1 (human) = PAK1 (human) (UniProt Q13153)
EPHA3 (human) = EPHA3 (human) (UniProt P29320)
PLK2 (human) = PLK2 (human) (UniProt Q9NYY3)
IRAK3 (human) = IRAK3 (human) (UniProt Q9Y616)
DCLK2 (human) = DCLK2 (human) (UniProt Q8N568)
Chain of DCLK2 (human) (Q8N568 whole entry, looked up): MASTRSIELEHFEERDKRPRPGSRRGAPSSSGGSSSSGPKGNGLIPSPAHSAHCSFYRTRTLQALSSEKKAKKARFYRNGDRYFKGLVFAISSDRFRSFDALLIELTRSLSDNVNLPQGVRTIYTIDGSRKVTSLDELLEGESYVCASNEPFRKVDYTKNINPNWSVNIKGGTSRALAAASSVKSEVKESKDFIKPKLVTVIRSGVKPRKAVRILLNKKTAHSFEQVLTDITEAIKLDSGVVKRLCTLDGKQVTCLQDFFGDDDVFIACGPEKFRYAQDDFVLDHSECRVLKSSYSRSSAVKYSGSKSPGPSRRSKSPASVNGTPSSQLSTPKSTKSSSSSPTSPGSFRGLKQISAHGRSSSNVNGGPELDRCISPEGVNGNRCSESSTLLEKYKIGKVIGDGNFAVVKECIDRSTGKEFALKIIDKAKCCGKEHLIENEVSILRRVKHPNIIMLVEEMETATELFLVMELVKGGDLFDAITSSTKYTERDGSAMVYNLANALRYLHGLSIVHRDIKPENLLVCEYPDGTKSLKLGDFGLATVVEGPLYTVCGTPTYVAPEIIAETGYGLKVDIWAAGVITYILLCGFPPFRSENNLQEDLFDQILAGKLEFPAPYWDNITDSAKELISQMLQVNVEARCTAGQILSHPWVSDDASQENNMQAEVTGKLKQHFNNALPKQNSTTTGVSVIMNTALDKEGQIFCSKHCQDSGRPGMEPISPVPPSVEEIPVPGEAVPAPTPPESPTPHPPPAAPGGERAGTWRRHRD

SNRK (human) = SNRK (human) (UniProt Q9NRH2)
DDR1 (human) = DDR1 (human) (UniProt Q08345)
LIMK2 (human) = LIMK2 (human) (UniProt P53671)
MST4 (human) = MST4 (human) (UniProt Q9P289)
PKN1 (human) = PKN1 (human) (UniProt Q16512)
MYO3B (human) = MYO3B (human) (UniProt Q8WXR4)
ACVRL1 (human) = ACVRL1 (human) (UniProt P37023)
BTK (human) = BTK (human) (UniProt Q06187)
Chain of BTK (human) (Q06187 whole entry, looked up): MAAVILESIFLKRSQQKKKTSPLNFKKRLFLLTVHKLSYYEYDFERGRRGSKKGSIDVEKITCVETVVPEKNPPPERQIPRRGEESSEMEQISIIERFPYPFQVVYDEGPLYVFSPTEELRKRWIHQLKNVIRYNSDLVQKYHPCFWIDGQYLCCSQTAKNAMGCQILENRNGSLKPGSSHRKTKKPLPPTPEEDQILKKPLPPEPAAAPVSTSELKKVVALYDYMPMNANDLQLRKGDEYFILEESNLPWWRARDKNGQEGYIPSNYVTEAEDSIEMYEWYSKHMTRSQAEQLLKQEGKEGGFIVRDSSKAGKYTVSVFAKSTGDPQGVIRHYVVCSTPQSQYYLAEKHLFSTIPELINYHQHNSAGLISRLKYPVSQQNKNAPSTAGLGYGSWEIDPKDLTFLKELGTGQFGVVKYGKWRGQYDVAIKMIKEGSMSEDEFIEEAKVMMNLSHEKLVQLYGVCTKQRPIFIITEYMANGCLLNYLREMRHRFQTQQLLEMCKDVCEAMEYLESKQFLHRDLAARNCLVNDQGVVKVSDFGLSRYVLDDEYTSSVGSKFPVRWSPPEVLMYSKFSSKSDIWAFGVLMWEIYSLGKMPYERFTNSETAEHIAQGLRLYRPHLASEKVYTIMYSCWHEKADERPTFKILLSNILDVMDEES

CDK17 (human) = CDK17 (human) (UniProt Q00537)
MAPK9 (human) = MAPK9 (human) (UniProt P45984)
ACVR1 (human) = ACVR1 (human) (UniProt Q04771)
MAP2K1 (human) = MAP2K1 (human) (UniProt Q02750)
MARK1 (human) = MARK1 (human) (UniProt Q9P0L2)
MKNK1 (human) = MKNK1 (human) (UniProt Q9BUB5)
STK4 (human) = STK4 (human) (UniProt Q13043)
OXSR1 (human) = OXSR1 (human) (UniProt O95747)
MAPK11 (human) = MAPK11 (human) (UniProt Q15759)
PRKCE (human) = PRKCE (human) (UniProt Q02156)
PRKCD (human) = PRKCD (human) (UniProt Q05655)
NEK4 (human) = NEK4 (human) (UniProt P51957)
LTK (human) = LTK (human) (UniProt P29376)
MYLK2 (human) = MYLK2 (human) (UniProt Q9H1R3)
PRKG1 (human) = PRKG1 (human) (UniProt Q13976)
MAP3K13 (human) = MAP3K13 (human) (UniProt O43283)
Chain of MAP3K13 (human) (O43283 whole entry, looked up): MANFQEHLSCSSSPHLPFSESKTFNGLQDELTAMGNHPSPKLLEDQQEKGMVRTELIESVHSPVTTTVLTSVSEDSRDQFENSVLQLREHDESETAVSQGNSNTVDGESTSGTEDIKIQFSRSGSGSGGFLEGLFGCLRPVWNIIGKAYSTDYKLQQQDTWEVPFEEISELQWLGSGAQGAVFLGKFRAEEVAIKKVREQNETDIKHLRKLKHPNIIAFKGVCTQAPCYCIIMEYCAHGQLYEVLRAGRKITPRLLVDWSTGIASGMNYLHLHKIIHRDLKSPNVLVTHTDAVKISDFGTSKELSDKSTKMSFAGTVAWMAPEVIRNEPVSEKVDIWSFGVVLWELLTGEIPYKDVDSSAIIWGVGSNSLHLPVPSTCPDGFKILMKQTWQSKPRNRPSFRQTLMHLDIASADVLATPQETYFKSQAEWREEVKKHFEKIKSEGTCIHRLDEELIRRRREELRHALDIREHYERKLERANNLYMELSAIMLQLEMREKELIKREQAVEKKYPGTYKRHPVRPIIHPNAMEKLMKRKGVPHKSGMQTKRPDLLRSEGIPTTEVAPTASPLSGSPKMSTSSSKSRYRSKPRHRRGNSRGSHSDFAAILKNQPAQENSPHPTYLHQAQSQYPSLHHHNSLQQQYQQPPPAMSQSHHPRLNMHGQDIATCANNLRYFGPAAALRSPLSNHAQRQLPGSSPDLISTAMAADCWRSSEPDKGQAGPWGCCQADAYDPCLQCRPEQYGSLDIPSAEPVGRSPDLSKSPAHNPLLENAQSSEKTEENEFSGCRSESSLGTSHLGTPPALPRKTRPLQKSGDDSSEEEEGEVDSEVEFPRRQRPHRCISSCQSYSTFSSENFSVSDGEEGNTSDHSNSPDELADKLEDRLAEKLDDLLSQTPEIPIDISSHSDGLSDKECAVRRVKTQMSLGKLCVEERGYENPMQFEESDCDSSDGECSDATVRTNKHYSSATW

INSRR (human) = INSRR (human) (UniProt P14616)
CSNK2A2 (human) = CSNK2A2 (human) (UniProt P19784)
Chain of CSNK2A2 (human) (P19784 whole entry, looked up): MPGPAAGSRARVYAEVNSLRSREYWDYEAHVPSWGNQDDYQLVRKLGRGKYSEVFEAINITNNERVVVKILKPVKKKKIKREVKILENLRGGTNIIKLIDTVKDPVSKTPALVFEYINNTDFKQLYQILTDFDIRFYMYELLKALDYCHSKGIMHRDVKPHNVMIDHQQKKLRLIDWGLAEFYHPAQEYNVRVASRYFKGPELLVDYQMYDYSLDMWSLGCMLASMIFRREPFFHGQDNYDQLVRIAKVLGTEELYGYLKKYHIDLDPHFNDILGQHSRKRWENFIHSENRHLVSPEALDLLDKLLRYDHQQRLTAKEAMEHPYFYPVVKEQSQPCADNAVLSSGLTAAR

Chain of ERBB4 (human) (Q15303 whole entry, looked up): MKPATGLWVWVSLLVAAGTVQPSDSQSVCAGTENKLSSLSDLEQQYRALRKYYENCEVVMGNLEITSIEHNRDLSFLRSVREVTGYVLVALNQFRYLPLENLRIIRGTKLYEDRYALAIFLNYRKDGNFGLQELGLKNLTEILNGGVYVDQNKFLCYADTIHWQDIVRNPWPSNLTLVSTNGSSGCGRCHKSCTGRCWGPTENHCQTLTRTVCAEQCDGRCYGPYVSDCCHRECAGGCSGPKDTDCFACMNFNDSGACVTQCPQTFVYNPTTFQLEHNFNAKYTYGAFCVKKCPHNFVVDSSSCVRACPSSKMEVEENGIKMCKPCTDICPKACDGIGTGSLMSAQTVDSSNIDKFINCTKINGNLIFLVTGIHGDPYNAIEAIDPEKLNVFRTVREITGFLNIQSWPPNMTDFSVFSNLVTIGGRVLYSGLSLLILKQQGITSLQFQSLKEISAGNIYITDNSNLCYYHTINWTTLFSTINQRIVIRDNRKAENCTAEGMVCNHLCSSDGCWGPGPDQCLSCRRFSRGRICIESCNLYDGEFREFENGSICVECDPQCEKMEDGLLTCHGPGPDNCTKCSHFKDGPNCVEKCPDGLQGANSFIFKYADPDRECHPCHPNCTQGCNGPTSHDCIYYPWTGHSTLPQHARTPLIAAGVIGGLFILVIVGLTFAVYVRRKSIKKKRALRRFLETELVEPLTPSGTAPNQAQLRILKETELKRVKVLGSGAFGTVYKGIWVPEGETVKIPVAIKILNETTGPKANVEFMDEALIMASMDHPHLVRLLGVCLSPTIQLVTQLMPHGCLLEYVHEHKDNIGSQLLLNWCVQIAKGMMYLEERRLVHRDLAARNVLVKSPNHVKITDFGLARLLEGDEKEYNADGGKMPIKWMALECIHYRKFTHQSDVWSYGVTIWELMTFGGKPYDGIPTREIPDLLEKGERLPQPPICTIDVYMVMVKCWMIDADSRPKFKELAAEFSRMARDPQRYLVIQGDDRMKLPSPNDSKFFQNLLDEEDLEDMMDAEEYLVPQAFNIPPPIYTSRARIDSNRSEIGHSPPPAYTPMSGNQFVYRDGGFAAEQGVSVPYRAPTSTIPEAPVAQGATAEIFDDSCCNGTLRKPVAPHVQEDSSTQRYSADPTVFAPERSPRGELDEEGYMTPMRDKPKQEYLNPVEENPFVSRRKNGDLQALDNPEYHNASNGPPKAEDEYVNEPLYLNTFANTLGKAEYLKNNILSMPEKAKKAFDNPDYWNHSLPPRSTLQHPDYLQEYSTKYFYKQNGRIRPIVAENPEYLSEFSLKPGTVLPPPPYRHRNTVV
Chain of PTK6 (human) (Q13882 whole entry, looked up): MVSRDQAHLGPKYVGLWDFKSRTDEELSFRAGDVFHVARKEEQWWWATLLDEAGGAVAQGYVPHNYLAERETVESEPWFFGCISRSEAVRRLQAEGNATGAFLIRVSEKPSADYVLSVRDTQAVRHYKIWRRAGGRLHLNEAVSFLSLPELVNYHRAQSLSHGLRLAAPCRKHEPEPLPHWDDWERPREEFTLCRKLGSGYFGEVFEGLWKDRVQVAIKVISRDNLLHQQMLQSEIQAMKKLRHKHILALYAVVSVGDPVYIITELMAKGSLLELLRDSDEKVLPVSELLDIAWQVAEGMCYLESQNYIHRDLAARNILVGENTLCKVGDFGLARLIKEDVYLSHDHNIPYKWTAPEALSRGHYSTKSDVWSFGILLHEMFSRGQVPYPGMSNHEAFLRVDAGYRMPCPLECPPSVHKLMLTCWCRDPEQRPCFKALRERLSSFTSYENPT
Chain of MAPK13 (human) (O15264 whole entry, looked up): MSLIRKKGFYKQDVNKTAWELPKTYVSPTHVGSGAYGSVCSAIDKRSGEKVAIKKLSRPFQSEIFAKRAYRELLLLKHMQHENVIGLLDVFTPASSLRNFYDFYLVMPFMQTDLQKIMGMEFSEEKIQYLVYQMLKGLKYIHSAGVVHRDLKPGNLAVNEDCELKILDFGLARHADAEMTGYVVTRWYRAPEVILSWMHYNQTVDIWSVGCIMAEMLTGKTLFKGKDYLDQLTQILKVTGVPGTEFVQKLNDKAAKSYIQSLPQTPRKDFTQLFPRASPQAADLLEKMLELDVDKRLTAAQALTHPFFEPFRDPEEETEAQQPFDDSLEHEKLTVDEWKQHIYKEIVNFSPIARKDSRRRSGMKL

CNC(=O)c1cc(Oc2ccc(NC(=O)Nc3ccc(Cl)c(C(F)(F)F)c3)cc2)ccn1
per cent of control (PTK6 (human)): 93% | per cent of control (TLK2 (human)): 99% | per cent of control (PIP5K1A (human)): 100% | per cent of control (EPHA5 (human)): 16% | per cent of control (ERBB4 (human)): 92% | per cent of control (MAPK8 (human)): 88% | per cent of control (PKMYT1 (human)): 93% | per cent of control (CSNK1G2 (human)): 100% | per cent of control (MAPK13 (human)): 21% | per cent of control (MAP3K12 (human)): 100% | per cent of control (BMX (human)): 94% | per cent of control (PAK1 (human)): 100% | per cent of control (EPHA3 (human)): 4% | per cent of control (PLK2 (human)): 100% | per cent of control (IRAK3 (human)): 76% | per cent of control (DCLK2 (human)): 95% | per cent of control (SNRK (human)): 100% | per cent of control (DDR1 (human)): 0% | per cent of control (LIMK2 (human)): 53% | per cent of control (MST4 (human)): 99% | per cent of control (PKN1 (human)): 100% | per cent of control (MYO3B (human)): 38% | per cent of control (ACVRL1 (human)): 100% | per cent of control (BTK (human)): 62% | per cent of control (CDK17 (human)): 13% | per cent of control (MAPK9 (human)): 21% | per cent of control (ACVR1 (human)): 100% | per cent of control (MAP2K1 (human)): 95% | per cent of control (MARK1 (human)): 90% | per cent of control (MKNK1 (human)): 1.6% | per cent of control (STK4 (human)): 96% | per cent of control (OXSR1 (human)): 100% | per cent of control (MAPK11 (human)): 0.05% | per cent of control (PRKCE (human)): 100% | per cent of control (PRKCD (human)): 100% | per cent of control (NEK4 (human)): 100% | per cent of control (LTK (human)): 76% | per cent of control (MYLK2 (human)): 22% | per cent of control (PRKG1 (human)): 100% | per cent of control (MAP3K13 (human)): 88% | per cent of control (INSRR (human)): 86% | per cent of control (CSNK2A2 (human)): 82%

CNC(=O)c1cc(Oc2ccc(NC(=O)Nc3ccc(Cl)c(C(F)(F)F)c3)cc2)cc[n+]1[O-]
per cent of control (PTK6 (human)): 100% | per cent of control (TLK2 (human)): 100% | per cent of control (PIP5K1A (human)): 100% | per cent of control (EPHA5 (human)): 15% | per cent of control (ERBB4 (human)): 100% | per cent of control (MAPK8 (human)): 13% | per cent of control (PKMYT1 (human)): 100% | per cent of control (CSNK1G2 (human)): 100% | per cent of control (MAPK13 (human)): 0.55% | per cent of control (MAP3K12 (human)): 100% | per cent of control (BMX (human)): 67% | per cent of control (PAK1 (human)): 100% | per cent of control (EPHA3 (human)): 4% | per cent of control (PLK2 (human)): 77% | per cent of control (IRAK3 (human)): 91% | per cent of control (DCLK2 (human)): 87% | per cent of control (SNRK (human)): 95% | per cent of control (DDR1 (human)): 0.05% | per cent of control (LIMK2 (human)): 59% | per cent of control (MST4 (human)): 49% | per cent of control (PKN1 (human)): 97% | per cent of control (MYO3B (human)): 17% | per cent of control (ACVRL1 (human)): 96% | per cent of control (BTK (human)): 30% | per cent of control (CDK17 (human)): 7.7% | per cent of control (MAPK9 (human)): 0.05% | per cent of control (ACVR1 (human)): 100% | per cent of control (MAP2K1 (human)): 80% | per cent of control (MARK1 (human)): 100% | per cent of control (MKNK1 (human)): 1% | per cent of control (STK4 (human)): 42% | per cent of control (OXSR1 (human)): 100% | per cent of control (MAPK11 (human)): 0% | per cent of control (PRKCE (human)): 100% | per cent of control (PRKCD (human)): 100% | per cent of control (NEK4 (human)): 93% | per cent of control (LTK (human)): 73% | per cent of control (MYLK2 (human)): 8.7% | per cent of control (PRKG1 (human)): 98% | per cent of control (MAP3K13 (human)): 68% | per cent of control (INSRR (human)): 86% | per cent of control (CSNK2A2 (human)): 70%

Source: the kinase profiling compilation of Christmann-Franck et al. (2016)
